The text below walks through data of patent US6093732A, “4-hydroxyquinoline-3-carboxamides and hydrazides as antiviral agents” (Pharmacia & Upjohn Company, priority 1998, dated 2000).

Bounds are passed on as bounds.

What is called IC50 is the concentration that gives 50% inhibition.

This assay deals with T1, HCMV polymerase (Human cytomegalovirus, UniProt P08546).
T1 construct: made in house; host or cells: recombinant baculovirus-infected SF-9 cells
T1 sequence (P08546 whole entry): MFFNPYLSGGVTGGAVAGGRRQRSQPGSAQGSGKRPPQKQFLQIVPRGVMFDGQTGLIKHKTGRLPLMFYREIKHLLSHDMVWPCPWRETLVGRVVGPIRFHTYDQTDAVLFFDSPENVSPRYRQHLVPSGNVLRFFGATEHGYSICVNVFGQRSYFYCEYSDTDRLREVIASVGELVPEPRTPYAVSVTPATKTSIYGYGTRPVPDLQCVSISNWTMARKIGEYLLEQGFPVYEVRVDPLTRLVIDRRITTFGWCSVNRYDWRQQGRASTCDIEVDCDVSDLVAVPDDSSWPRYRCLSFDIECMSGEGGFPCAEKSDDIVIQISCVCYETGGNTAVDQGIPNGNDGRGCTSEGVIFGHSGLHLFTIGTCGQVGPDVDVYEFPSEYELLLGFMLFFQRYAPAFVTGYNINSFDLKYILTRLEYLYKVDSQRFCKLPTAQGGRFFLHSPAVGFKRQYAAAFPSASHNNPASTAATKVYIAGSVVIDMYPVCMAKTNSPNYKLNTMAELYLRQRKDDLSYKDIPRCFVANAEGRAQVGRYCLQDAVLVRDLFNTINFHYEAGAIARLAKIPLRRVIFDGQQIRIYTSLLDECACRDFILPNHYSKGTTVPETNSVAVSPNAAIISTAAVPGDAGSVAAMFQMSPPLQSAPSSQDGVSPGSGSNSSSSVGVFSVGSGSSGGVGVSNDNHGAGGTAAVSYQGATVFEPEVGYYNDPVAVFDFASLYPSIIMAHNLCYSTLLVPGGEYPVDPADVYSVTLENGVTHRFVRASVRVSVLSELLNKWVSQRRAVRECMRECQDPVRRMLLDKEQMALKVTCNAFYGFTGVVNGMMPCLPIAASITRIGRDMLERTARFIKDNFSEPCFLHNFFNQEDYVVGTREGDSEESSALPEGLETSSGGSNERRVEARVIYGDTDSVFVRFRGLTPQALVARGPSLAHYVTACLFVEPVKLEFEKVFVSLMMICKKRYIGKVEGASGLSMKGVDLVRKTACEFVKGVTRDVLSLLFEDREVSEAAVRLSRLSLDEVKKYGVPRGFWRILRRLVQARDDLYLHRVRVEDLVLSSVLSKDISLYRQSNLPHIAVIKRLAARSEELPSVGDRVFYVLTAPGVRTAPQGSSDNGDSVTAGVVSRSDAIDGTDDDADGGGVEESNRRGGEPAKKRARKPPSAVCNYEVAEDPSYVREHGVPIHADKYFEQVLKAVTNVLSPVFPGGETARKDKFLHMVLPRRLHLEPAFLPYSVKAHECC
The assay is described as follows: HCMV polymerase scintillation proximity assay (SPA), modified version. Format: biochemical. To be noted: CMV polymerase; Table 1; modified assay with 4.5 mM DTT, compounds in 100% DMSO; read-out: Antiviral Selective Polymerase IC50 Values, CMV. The method, then:
The HCMV polymerase assay is performed using a scintillation proximity assay (SPA) as described in several references, such as N. D. Cook, et al., Pharmaceutical Manufacturing International, pages 49-53 (1992); K. Takeuchi, Laboratory Practice, September issue (1992); U.S. Pat. No. 4,568,649 (1986); which are incorporated by reference herein. Reactions are performed in 96-well plates. The assay is conducted in 100 μl volume with 5.4 mM HEPES (pH 7.5), 11.7 mM KCl, 4.5 mM MgCl2, 0.36 mg/ml BSA, and 90 nM ^3 H-dTTP. Assays are run with and without CHAPS, (3-[(3-Cholamidopropyl)-dimethylammonio]-1-propane-sulfonate) at a final concentration of 2 mM. HCMV polymerase is diluted in enzyme dilution buffer containing 50% glycerol, 250 mM NaCl, 10 mM HEPES (pH 7.5), 100 μg/ml BSA, and 0.01% sodium azide. The HCMV polymerase, which is expressed in recombinant baculovirus-infected SF-9 cells and purified according to literature procedures, is added at 10% (or 10 μl) of the final reaction volume, i.e., 100 μl. Compounds are diluted in 50% DMSO and 10 μl are added to each well. Control wells contain an equivalent concentration of DMSO. Unless noted otherwise, reactions are initiated via the addition of 6 nM biotinylated poly(dA)-oligo(dT) template/primer to reaction mixtures containing the enzyme, substrate, and compounds of interest. Plates are incubated in a 25° C. or 37° C. H2 O bath and terminated via the addition of 40 μl/reaction of 0.5 M EDTA (pH 8) per well. Reactions are terminated within the time-frame during which substrate incorporation is linear and varied depending upon the enzyme and conditions used, i.e., 30 min. for HCMV polymerase. Ten μl of streptavidin-SPA beads (20 mg/ml in PBS/10% glycerol) are added following termination of the reaction. Plates are incubated 10 min. at 37° C., then equilibrated to room temperature, and counted on a Packard Topcount. Linear regressions are performed and IC50 's are calculated using computer software.
A modified version of the above HCMV polymerase assay is performed as described above, but with the following changes: Compounds are diluted in 100% DMSO until final dilution into assay buffer. In the previous assay, compounds are diluted in 50% DMSO. 4.5 mM dithiotherotol (DTT) is added to the polymerase buffer. […] Other viral polymerase assays are performed using procedures similar to those described above.
Take `O=C(NCc1ccc(Cl)cc1)c1cnc2ccc(COCCO)cc2c1O` [Example 163, N-(4-Chlorobenzyl)-4-hydroxy-6-[(2-hydroxyethoxy)methyl]-3-quinolinecarboxamide]: the IC50 came out at 0.59 µM.

As for `O=C(NCc1ccc(Cl)cc1)c1cnc2ccc(NCCO)cc2c1O` [Example 188, N-(4-Chlorobenzyl)-4-hydroxy-6-[(2-hydroxyethyl)amino]-3-quinolinecarboxamide], the IC50 was determined as 2.1 µM.

For `O=C(NCc1ccc(Cl)cc1)c1cnc2c(F)cc(S(=O)(=O)NCCN3CCOCC3)cc2c1O` [Example 213, N-(4-chlorobenzyl)-8-fluoro-4-hydroxy-6-{[(2-morpholinoethyl)amino]sulfonyl}-3-quinolinecarboxamide], the IC50 was 18.9 µM.

In the case of `COc1cccc2c(O)c(C(=O)NCc3ccc(Cl)cc3)cnc12` [Example 20, N-[(4-Chlorophenyl)methyl]-4-hydroxy-8-methoxy-3-quinoline-carboxamide], the IC50 turned out to be 6.5 µM.

Take `Cc1nnc(-c2cc(F)c3ncc(C(=O)NCc4ccc(Cl)cc4)c(O)c3c2)s1` [Example 100, N-(4-Chlorobenzyl)-8-fluoro-4-hydroxy-6-(5-methyl-1,3,4-thiadiazol-2-yl)-3-quinolinecarboxamide]: the IC50 came to 6.7 µM.

Consider `Cc1cc(Cl)cc2c(O)c(C(=O)NCc3ccc(Cl)cc3)cnc12` [Example 167, 6-Chloro-N-[(4-chlorophenyl)methyl]-4-hydroxy-8-methyl-3-quinolinecarboxamide], for which the IC50 was 5 µM.

With `O=C(NCc1ccc(Cl)cc1)c1cnc2c(F)cc(S(=O)(=O)NCCc3ccc(Cl)cc3)cc2c1O` [Example 231, N-(4-chlorobenzyl)-6-{[(4-chlorophenethyl)amino]sulfonyl}-8-fluoro-4-hydroxy-3-quinolinecarboxamide], the IC50 was 8.3 µM.

On to `CN(CCS(=O)(=O)O)C(=O)CCCCCCC(=O)OCCCc1cc(F)c2ncc(C(=O)NCc3ccc(Cl)cc3)c(O)c2c1`, for which the IC50 amounted to 11.5 µM.

With `CC(=O)NCCNS(=O)(=O)c1cc(F)c2ncc(C(=O)NCc3ccc(Cl)cc3)c(O)c2c1` [Example 227, 6-({[2-(acetylamino)ethyl]amino}sulfonyl)-N-(4-chlorobenzyl)-8-fluoro-4-hydroxy-3-quinolinecarboxamide], the IC50 stood at 26.7 µM.

For the molecule `O=C(NCc1ccc(Cl)cc1)c1cnc2c(F)cc(S(=O)(=O)NCCCNC3CCCCC3)cc2c1O` [Example 205, N-(4-chlorobenzyl)-6-({[3-(cyclohexylamino)propyl]amino}sulfonyl)-8-fluoro-4-hydroxy-3-quinolinecarboxamide], the IC50 is not below 50 µM.

Turning to `CN1CCCC1CCNS(=O)(=O)c1cc(F)c2ncc(C(=O)NCc3ccc(Cl)cc3)c(O)c2c1` (stereo not drawn) [Example 202, N-(4-chlorobenzyl)-8-fluoro-4-hydroxy-6-({[2-(1-methyl-2-pyrrolidinyl)ethyl]amino}sulfonyl)-3-quinolinecarboxamide], the 50% inhibitory concentration (IC50) was not below 50 µM.

Regarding `CC(C)(C)OC(=O)NCCCCC(NC(=O)OC(C)(C)C)C(=O)OCCCc1cc(F)c2ncc(C(=O)NCc3ccc(Cl)cc3)c(O)c2c1` (stereo not drawn) [Example 155, 3-(3{[(4-Chlorobenzyl)amino]carbonyl}-8-fluoro-4-hydroxy-6-quinolinyl)propyl 2,6-bis[(tert-butoxycarbonyl)amino]hexanoate], the IC50 is not below 50 µM.

Take `N#Cc1cccc2c(O)c(C(=O)NCc3ccc(Cl)cc3)cnc12` [Example 48, N-[(4-Chlorophenyl)methyl]-8-cyano-4-hydroxy-3-quinoline-carboxamide]: the IC50 was 6.5 µM.

On to `CC(O)CNS(=O)(=O)c1cc(F)c2ncc(C(=O)NCc3ccc(Cl)cc3)c(O)c2c1` (stereo not drawn) [Example 223, N-(4-chlorobenzyl)-8-fluoro-4-hydroxy-6-{[(2-hydroxypropyl)amino]sulfonyl}-3-quinolinecarboxamide], for which the IC50 came out at 14.5 µM.

In the case of `O=C(NCc1ccc(Cl)cc1)c1cnc2cc3c(cc2c1O)OCO3` [Example 279, N-(4-Chlorobenzyl)-8-hydroxy[1,3]dioxolo [4,5-g]quinoline-7-carboxamide], the IC50 worked out at 4.9 µM.

With `O=C(NCc1ccc(Cl)cc1)c1cnc2c(F)cc(C#CCCO)cc2c1O` [Example 94, N-(4-Chlorobenzyl)-8-fluoro-4-hydroxy-6-(4-hydroxy-1-butynyl)-3-quinolinecarboxamide], the IC50 is 5.3 µM.

Take `O=C(NCc1ccc(Cl)cc1)c1cnc2c(C(F)(F)F)cc(CCCO)cc2c1O` [Example 123, N-(4-Chlorobenzyl)-4-hydroxy-6-(3-hydroxypropyl)-8-(trifluoromethyl)-3-quinolinecarboxamide]: the IC50 came to 2.2 µM.

Turning to `O=C(NCc1ccc(Cl)cc1)c1cnc2cc(C#CCO)ccc2c1O` [Example 101, N-(4-Chlorobenzyl)-4-hydroxy-7-(3-hydroxy-1-propynyl)-3-quinolinecarboxamide], the IC50 stood at 25.8 µM.

Regarding `COCCCc1cc(F)c2ncc(C(=O)NCc3ccc(Cl)cc3)c(O)c2c1` [Example 103, N-(4-Chlorobenzyl)-8-fluoro-4-hydroxy-6-(3-methoxypropyl)-3-quinolinecarboxamide], the IC50 came out at 2.5 µM.

For the molecule `CCSC/C=C\c1cc(F)c2ncc(C(=O)NCc3ccc(Cl)cc3)c(O)c2c1` [Example 129, N-[(4-Chlorophenyl)methyl]-6-[(1Z)-3-(ethylthio)-1-propenyl]-8-fluoro-4-hydroxy-3-quinolinecarboxamide], the half-maximal inhibitory concentration (IC50) is 1 µM.

Consider `O=C(NCc1ccc(Cl)cc1)c1cnc2ccc(S(=O)(=O)Nc3ccnn3-c3ccccc3)cc2c1O` [Example 47, N-[(4-Chlorophenyl)methyl]-4-hydroxy-6-[[(1-phenyl-1H-pyrazol-5-yl)amino]sulfonyl]-3-quinolinecarboxamide], for which the IC50 worked out at 39.7 µM.

Turning to `COc1c(F)cc2c(O)c(C(=O)NCc3ccc(Cl)cc3)cnc2c1F` [Example 82, N-((4-Chlorophenyl)methyl)-6,8-difluoro-4-hydroxy-7-methoxy-3-quinolinecarboxamide], the IC50 worked out at 2.5 µM.

Consider `CSCC#Cc1cc(F)c2ncc(C(=O)NCc3ccc(Cl)cc3)c(O)c2c1` [Example 126, N-[(4-Chlorophenyl)methyl]-8-fluoro-4-hydroxy-6-[3-(methylthio)-1-propynyl]-3-quinolinecarboxamide], for which the IC50 stood at 19.7 µM.

As to `COc1ccc(CNS(=O)(=O)c2cc(F)c3ncc(C(=O)NCc4ccc(Cl)cc4)c(O)c3c2)c(OC)c1` [Example 241, N-(4-chlorobenzyl)-6-{[(2,4-dimethoxybenzyl)amino]sulfonyl}-8-fluoro-4-hydroxy-3-quinolinecarboxamide], the IC50 is 16 µM.

For the molecule `O=C(NCc1ccc(Cl)cc1)c1cnc2c(F)cc(SCCN3CCOCC3)cc2c1O` [Example 174], the IC50 was found to be 28.9 µM.

In the case of `C[S+]([O-])c1cc(F)c2ncc(C(=O)NCc3ccc(Cl)cc3)c(O)c2c1` (stereo not drawn) [Example 175, N-(4-Chlorobenzyl)-8-fluoro-4-hydroxy-6-(methylsulfinyl)-3-quinolinecarboxamide], the half-inhibitory concentration (IC50) was determined as 7.2 µM.

On to `O=C(NCc1ccc(Cl)cc1)c1cnc2c(F)cc(S(=O)(=O)NCc3cccc4ccccc34)cc2c1O` [Example 206, N-(4-chlorobenzyl)-8-fluoro-4-hydroxy-6-{[(1-naphthylmethyl)amino]sulfonyl}-3-quinolinecarboxamide], for which the concentration for half-maximal inhibition (IC50) turned out to be 2.4 µM.

With `CN(C)c1ccc2c(O)c(C(=O)NCc3ccc(Cl)cc3)cnc2c1` [Example 27, N-[(4-Chlorophenyl)methyl]-7-(dimethylamino)-4-hydroxy-3-quinolinecarboxamide], the IC50 came to 16 µM.

As to `O=C(NCc1ccc(Cl)cc1)c1cnc2c(F)cc(SCCO)cc2c1O` [Example 171], the IC50 was determined as 1.9 µM.

As to `Cc1ccc2c(O)c(C(=O)NCc3ccc(Cl)cc3)cnc2c1` [Example 11, N-[(4-Chlorophenyl)methyl]-4-hydroxy-7-methyl-3-quinoline-carboxamide], the IC50 is 21.2 µM.

Turning to `O=C(NCc1ccc(Cl)cc1)c1cnc2ccc3[nH]ncc3c2c1O` [Example 116], the IC50 turned out to be 16.5 µM.

Regarding `O=C(c1ccccc1)c1ccc2ncc(C(=O)NCc3ccc(Cl)cc3)c(O)c2c1` [Example 280, 6-Benzoyl-N-(4-chlorobenzyl)-4-hydroxy-3-quinolinecarboxamide], the IC50 came out at 57.8 µM.

In the case of `O=C(NCc1ccc(Cl)cc1)c1cnc2c(F)cc(S(=O)(=O)NCc3ccccc3Sc3ccccc3CO)cc2c1O` [Example 260], the IC50 came out at 5.7 µM.
